Results from US20260232578A1, “COMPOSITIONS AND METHODS FOR TRANSMUCOSAL ABSORPTION” (Tonix Pharma Limited, priority 2012, published 2026).
Structures can show the parent of a compound that is named as a salt. Where two headings read alike, the source gives them in different places.

How the values were obtained:
in vivo [1] = settings: female, beagle, dog, 0.14 mg/kg
Description: The protocol was designed as outlined in Table 23.
The method requires a lithium heparinized plasma sample volume of 200 μl. The extraction is a liquid liquid extraction with hexane, and the extracts are injected using an HPLC system and an […] (Applied Biosystems) for the MS/MS detection, with a “Onyx monolithic Phenomenex C18 100×3.0 mm” column.
Concentrations of the samples are calculated using Watson® 7.2.0.03 directly from chromatograms after automatic integration by Analyst® 1.5.1 and expressed as ng/mL. Mean plasma concentrations will be calculated (when calculable, i.e. n>2) using individual concentrations and will be expressed with the corresponding standard deviation value and variation coefficients (when calculable, i.e. n>3) (with CV(%)=(SD/mean)×100). The individual plasma concentrations are tabulated for each dog and scheduled sampling time. Concentrations below the LLOQ are designated as “BLQ.” All BLQ concentrations are substituted by zero for calculation of the descriptive statistics of the concentrations.
Pharmacokinetic analysis is carried out using […]® (Version 4.3 (Thermo Electron Corporation)). An independent model (non compartmental analysis) is used. All BLQ values in the absorption phase are substituted by zero, except for BLQ values between evaluable concentrations, which are treated as missing values, before the calculation of the pharmacokinetic variables. The terminal BLQ values are ignored. The following pharmacokinetic parameters are calculated:
5 non-naive female dogs are used, each dog receiving the test substance by oral administration via nasogastric tube to the stomach (NG) administration, sublingual administration (SL), and by intravenous (IV) administration. There is a “wash-out” period of at least two weeks between each type of administration. Blood samples are drawn as follows:
A single NG dose of 0.14 mg/kg (under a volume of 5 ml/kg and a solution concentration of 0.028 mg/mL) is administered.
After a wash-out period of at least 2 weeks, dogs are sedated using propofol (6.5 mg/kg IV). They will be then given a single sublingual dose of 0.14 mg/kg (under a volume of 0.056 mL/kg and a solution concentration of 2.5 mg/mL).
After a wash-out period of at least 2 weeks, dogs are given a single IV dose of 0.14 mg/kg (under a volume of 1 mL/kg, bolus of approximately 30 sec, and a solution concentration of 0.14 mg/mL).
Blood sampling was designed to minimize animal suffering and to ensure the quality of the biological samples, and was adapted from basic procedures commonly used in studies performed in dogs. Serial blood samples (1 tube of approximately 5 mL) are collected from a jugular vein using vacuum tubes containing lithium heparin. After sealing each tube, the blood samples are manually agitated and stored on ice until centrifugation (within 30 minutes of sampling). The samples are centrifuged at 1500 g, at 4° C., for 10 minutes. The entire resultant plasma obtained from each tube is immediately transferred to suitably labeled polypropylene tubes (3 aliquots of plasma of at least 500 μl each), which are stored upright at approximately −80° C. and protected from light until bioanalysis.
The dogs are fasted overnight before each administration, and food is given to the dogs 4 hours after each treatment. […] In each of the three routes, a potassium phosphate buffer (pH 7.4) is used as the vehicle.
As referred to in Example 4, a study was designed in order to assess the effects of the compositions and methods of the invention. […] The pharmacokinetic parameters were then calculated. A summary of the study design is as follows:
Blood was collected in a fasted condition for all three routes of administration. […] Briefly, the method involved liquid-liquid extraction with hexane. The extracts were injected using an HPLC system and an API4000® (Applied Biosystems) for the MS/MS detection, with an “Onyx monolithic Phenomenex C18 100×3.0 mm” column.

in vivo [2] = settings: beagle, dog; for AUC(0-t): AUCt
Description: Each dog was sampled at pre-dose before and after Propofol (when possible) and at 5, 10 and 20 minutes post-dose.

[3] = Description: The (KH2PO4) solution was prepared according to the current USP (USP 34) (Table 25). Briefly, 50 mL of 0.2 M monobasic potassium phosphate (KH2PO4) was mixed with 39.1 mL of 0.2 M NaOH, and water was added to bring the solution to a final volume of 200 mL. During the test, the change in the pH of the solution also was measured for each addition.
[4] = 25° C.; cited from earlier work
[5] = iv, Cyclobenzaprine plasma concentration
[6] = po, Cyclobenzaprine plasma concentration

## CN(C)CCC=C1c2ccccc2C=Cc2ccccc21 [cyclobenzaprine HCl]
In vivo [1]; iv, AUCinf
  AUC(0-inf): 44.9 ± 4.15 ng·h/mL
In vivo [1]; iv, AUCt
  AUC(0-t): 43.5 ng·h/mL
In vivo [1]; iv, Cl
  clearance: 52.3 mL/min/kg
In vivo [1]; [5]
  concentration at 10 min: 21.1 ng/mL
  concentration at 20 min: 17.3 ng/mL
  concentration at 0.5 h: 14.3 ng/mL
  concentration at 1 h: 9 ng/mL
  concentration at 2 h: 6.5 ng/mL
  concentration at 3 h: 4.43 ng/mL
  concentration at 24 h: 0.1 ng/mL
In vivo [1]; po
  Cl (Cl/F): 1206 mL/min/kg
  Kel: 0.4782 h⁻¹
In vivo [1]; po, Cl (Cl/F)
  CL/F: 1210 mL/min/kg
In vivo [1]; [6]
  concentration at 6 h: 0.15 ng/mL
  concentration at 8 h: 0.126 ng/mL
  concentration at 10 h: 0.112 ng/mL
In vivo [1]; po, Vd (Vd/F)
  Vd/F: 151 L/kg
In vivo [1]; po, t1/2
  half-life: 86.9 min
In vivo [2]
  AUCt: 22.78 ng·h/mL
  Bioavailability F % IV without propofol vs sublingual with propofol: 197.0%
  Cmax: 92.23 ng/mL
  Tmax: 10 min
  AUC(0-t): 17.4 ng·h/mL
In vivo [2]; Cmax
  Cmax: 75.6 ng/mL
In vivo [2]; iv
  AUCt: 11.56 ng·h/mL
  Cmax: 40.10 ng/mL
  Tmax: 5 min
  AUC(0-t): 7.67 ng·h/mL
In vivo [2]; iv, Cmax
  Cmax: 26.8 ng/mL
[3]; 10 g added to 100 mL Phosphate Buffer Solution pH 7.4
  pH value: 6.43
[3]; 10 g added to 100 mL purified water
  pH value: 3.31
[3]; 15 g added to 100 mL Phosphate Buffer Solution pH 7.4
  pH value: 6.29
[3]; 15 g added to 100 mL purified water
  pH value: 3.24
[3]; 20 g added to 100 mL Phosphate Buffer Solution pH 7.4
  pH value: 6.21
[3]; 20 g added to 100 mL purified water
  pH value: 3.16
[3]; 25 g added to 100 mL Phosphate Buffer Solution pH 7.4
  pH value: 6.15
[3]; 25 g added to 100 mL purified water
  pH value: 3.11
[3]; 30 g added to 100 mL Phosphate Buffer Solution pH 7.4
  pH value: 6.10
[3]; 30 g added to 100 mL purified water
  pH value: 3.07
[3]; […] at 7.4 containing K2HPO4 or KH2PO4
  solubility state in solution: close to its saturation point
[4]
  acid dissociation constant (pKa) for the amine group: approximately 8.5
